This note sets out measurements from paper PMC4609890, “Discovery of novel small molecule modulators of Clavibacter michiganensis subsp. michiganensis” (Frontiers in Microbiology, 2015).

≈ marks a conversion by molar mass, not a printed value.

Experiment [1] has as its system Clavibacter michiganensis subsp. michiganensis (Cmm). Kind of experiment: Minimum bacteriocidal concentration (MBC) for Cmm. Format: cell-based. The settings on record: read-out: MBCs. Here is the method: (§1) Seventy-seven selected compounds were re-ordered from ChemBridge in a 96-well format as a powder. The compounds were dissolved in 100 μl DMSO and stored at -80°C until used. […] In addition, ability of Cmm to develop resistance to selected compounds was tested.
(§2) Single step and sequential passage resistance assays were performed as described previously with few modifications ([Ling et al., 2015]). Eleven of the 12 top hit compounds were tested in this experiment and one could not be resynthesized. […] The MBCs for each of these compounds were determined as described previously ([Ling et al., 2015]).

For experiment [2] the test system is unchanged. Kind of experiment: Resistance evaluation by sequential passage at sub-lethal doses. The settings on record: 15 passages in liquid NBY at 0.75X MIC. Format: cell-based. Here is the method: as §2
Clavibacter michiganensis subsp. michiganensis cultures grown in NBY broth medium at 28°C for 24 h were suspended in fresh NBY broth and normalized to an OD600 of 0.01 (5 × 10^6 CFU/ml). One-hundred microliters fresh culture was transferred to duplicate wells of a 96-well microtiter plate each containing 0.75× MIC of a test compound (concentration allowing >50% growth inhibition). Cmm cultured in 20 μg/ml chloramphenicol, 50 μg/ml kanamycin, or 2% DMSO, or non-amended NBY broth were used as controls. The bacteria were incubated at 28°C, 150 rpm, for 24 h in the dark. Following incubation, plates were centrifuged at 2,100 × g for 5 min at room temperature. The supernatant was discarded, bacteria were resuspended in 100 μl fresh NBY and transferred into a new 96-well plate containing 0.75× MIC of the same small molecule. This procedure was repeated 14 times. Following 15 passages, bacterial suspensions were assessed for resistance to the test compound by assessing MIC and MBC as noted above.

The test system of experiment [3] is Cmm strains. Nature of the experiment: Secondary screen kinetic growth inhibition of Cmm strains. Format: cell-based, Clavibacter michiganensis subsp. michiganensis. The settings on record: kinetic growth 24 h. On the procedure: as §1
(§3) Screening for growth inhibition of Cmm strains, plant beneficial bacteria and human gut bacteria was set up similarly to the initial screen using 1 μl of 2 μmol suspensions of each compound. Plates were incubated in a Sunrise^TM Tecan microplate reader for kinetic measurement of growth every 15 min for 24 h. Growth curves were analyzed in DB interface software and the effect of each compound on growth was evaluated based on the ratio of area under growth curve (compound/control) as “no significant effect (ratio > 0.5),” “inhibition (ratio ≤ 0.5),” “static (ratio = 0, bacterial growth revived after streak on a fresh NBY plate)” and “cidal (ratio = 0, bacterial growth not revived)” ([Wallace et al., 2011]).

Experiment [4] deals with Gram-negative bacteria tested. Kind of experiment: Secondary screen kinetic growth inhibition of Gram-negative bacteria. Format: cell-based. The settings on record: 200 μM. On the procedure: as §1, §3
The test system of experiment [5] is Clavibacter michiganensis subsp. michiganensis (Cmm). Kind of experiment: Minimum inhibitory concentration (MIC) for Cmm growth. Format: cell-based. The settings on record: read-out: MICs. Here is the method: Seventy-seven selected compounds were re-ordered from ChemBridge in a 96-well format as a powder. The compounds were dissolved in 100 μl DMSO and stored at -80°C until used. […] In addition, ability of Cmm to develop resistance to selected compounds was tested. […]

Experiment [6] has the same test system. Nature of the experiment: Resistance evaluation by single step at a lethal dose. Format: cell-based. The settings on record: 5 days on NBY agar with 2X MIC, 1 × 10^9 CFU. Here is the method:
as §2
Cmm grown in NBY medium at 28°C for 48 h was centrifuged at 4,700 × g for 15 min at room temperature. Supernatant was discarded and bacteria were resuspended in sterile water to a concentration of 2 × 10^10 CFU/ml). Compounds (2× MIC) were mixed with […] of molten NBY agar medium and transferred to duplicate wells of a 24-well culture plate. Agar in the plate was allowed to solidify in the dark. Fifty microlitre of Cmm culture (1 × 10^9 CFU) was added to test wells, dried in the dark at room temperature, and incubated at 28°C for 5 days in the dark. Bacteria spread on NBY agar with 50 μg/ml kanamycin or NBY agar itself was used as positive and negative controls, respectively. After 5 days of incubation, any colonies that developed were assessed for resistance to the test compounds by determining MIC and the MBC as noted above.

Experiment [7] concerns Bacillus subtilis GB03. Kind of experiment: Secondary screen kinetic growth inhibition of B. subtilis. Type of experiment: cell-based. The settings on record: 200 μM. On the procedure: as §1, §3
The test system of experiment [8] is plant beneficial bacteria and human gut bacteria. Kind of experiment: Secondary screen on plant beneficial bacteria and human gut bacteria (antibacterial spectrum). Type of experiment: cell-based. The settings on record: compared with other 11 compounds; data not shown. On the procedure:
as §1, §3

Experiment [9] concerns Cmm BL-Cmm17. Nature of the experiment: Bioluminescent Cmm tomato seedling infection assay. The settings on record: seeds infested with BL-Cmm17, compound applied to seed, 8-days-old seedlings plated. Format: in vivo. Here is the method: A bioluminescent Cmm strain, BL-Cmm17, was used to monitor the effect of selected small molecules on Cmm infection of tomato seedlings in vivo ([Xu et al., 2010]). Briefly, tomato seeds (cv. OH9242) were infested by soaking in BL-Cmm17 suspension (10^8 CFU/ml) in a 100-ml sterile beaker. The beaker was placed in a Nucerite Desiccator (Nalge Sybron Corporation, Rochester, NY, USA), and a vacuum was applied for 5 min using an Air Cadet pump (Barnant, Barrington, IL, USA) with a maximum of 18 lb/in^2 pressure. Seeds treated similarly with sterilized water were used as controls. After inoculation, seeds were air-dried and one seed was placed in a 1.2 ml library tube containing 400 μl of 1% water agar; tubes were placed in wells of a 96-well plate. The selected compound (1 μl of 2 μmol in 50 μl water) was applied to each seed and the plate was incubated at 25°C under 8 h/16 h light/dark conditions. There were three replicate seeds/plate per treatment. Bioluminescence images were taken using an in vivo imaging system (IVIS Model 100; PerkinElmer, Waltham, MA, USA) 3 and 8 days later. Eight-days-old seedlings were ground in potassium phosphate buffer and extracts were serially diluted and plated on NBY to assess the presence of Cmm.

On to `Cc1cc(O)ccc1Nc1nc(-c2cccs2)cs1` [Compound 3], for which the MBC in [1] was 50 µM (≈ 14.4 µg/mL). Also, in [2], the “Resistant colonies after growth at sub-lethal (0.75X MIC) concentration” value (“Resistant colonies after growth” for short) was “None”. The “Effect on Cmm growth” value in [3] was “cidal (cidal (ratio = 0, bacterial growth not revived))”. Moreover, the “Effect on growth of Gram-negative bacteria tested” value in experiment [4] was “not”. Moreover, the MIC in [5] amounted to 50 µM (≈ 14.4 µg/mL). Besides, the “Resistant colonies after incubation at lethal (2X MIC) concentration” value (“Resistant colonies after incubation” for short) in [6] is listed as “None”. The “Effect on B. subtilis growth” value in experiment [7] is recorded as “cidal (cidal (ratio = 0, bacterial growth not revived))”.
With `CC1CCC(C(C)C)C(OC(=O)Cn2c[n+](CC(=O)OC3CC(C)CCC3C(C)C)c3ccccc32)C1` (stereo not drawn) [Compound 5], the MBC in experiment [1] turned out to be 5 µM. For the same compound, the Antibacterial spectrum entry in experiment [8] was “broader antibacterial spectrum”. Besides, the “Resistant colonies after growth” value in experiment [2] was “None”. In addition, the MIC in experiment [5] came out at 5 µM. Moreover, the “Resistant colonies after incubation” value in [6] is “None”.
With `CCOC(=O)N1CCN(CC(O)COc2ccc(C3CCCCC3)cc2)CC1` (stereo not drawn) [Compound 8], the MBC in experiment [1] was 50 µM (≈ 19.5 µg/mL). Also, in experiment [2], the “Resistant colonies after growth” value is “None”. The MIC in [5] came out at 50 µM (≈ 19.5 µg/mL). Also, the “Resistant colonies after incubation” value in [6] is given as “None”.
In the case of `COc1cccc(-c2ccc(NC(=O)C3CCCN(Cc4cccc(O)c4)C3)cc2)c1` (stereo not drawn) [Compound 12], the MBC in [1] was found to be 25 µM (≈ 10.4 µg/mL). Besides, in experiment [9], the “Cmm growth reduction in tomato seedlings” value is “over 0.5 log”. In experiment [2], the “Resistant colonies after growth” value is on record as “None”. The MIC in experiment [5] is 12.5 µM (≈ 5.21 µg/mL). Further, the “Resistant colonies after incubation” value in experiment [6] is reported as “None”.
As to `COc1cccc(-c2ccccc2NC(=O)C2CCN(Cc3ccc(OC)cc3F)CC2)c1` [Compound 1], in [1], the MBC came to 25 µM (≈ 11.2 µg/mL). In addition, the “Resistant colonies after growth” value in experiment [2] is listed as “None”. In addition, in [5], the MIC came to 25 µM (≈ 11.2 µg/mL). Besides, the “Resistant colonies after incubation” value in [6] is “None”.
With `CCCOc1ccc(C(=O)C2=C(O)C(=O)N(CCCN(C)C)C2c2ccc(Cl)cc2)cc1C` (stereo not drawn) [Compound 9], the MBC in experiment [1] was determined as 100 µM (≈ 47.1 µg/mL). For the same compound, the “Resistant colonies after growth” value in experiment [2] is listed as “None”. Also, the MIC in experiment [5] worked out at 50 µM (≈ 23.5 µg/mL). Further, the “Resistant colonies after incubation” value in experiment [6] is “None”.
On to `CC(C)Cc1ccc(CN2CCCC(NC(=O)CCn3c(CO)nc4ccccc43)C2)cc1` (stereo not drawn) [Compound 4], for which, in experiment [1], the MBC was determined as 100 µM (≈ 44.9 µg/mL). Further, the “Resistant colonies after growth” value in experiment [2] is on record as “None”. In addition, the MIC in experiment [5] was 100 µM (≈ 44.9 µg/mL). Moreover, the “Resistant colonies after incubation” value in experiment [6] is “None”.
For `Cc1ccnc(Nc2nc(-c3ccc(O)c(O)c3)cs2)c1` [Compound 7], the MBC in experiment [1] was 50 µM (≈ 15 µg/mL). In addition, the “Resistant colonies after growth” value in experiment [2] was “None”. In experiment [3], the “Effect on Cmm growth” value is on record as “cidal (cidal (ratio = 0, bacterial growth not revived))”. Moreover, the “Effect on growth of Gram-negative bacteria tested” value in experiment [4] is reported as “not”. In experiment [5], the MIC came out at 50 µM (≈ 15 µg/mL). Also, the “Resistant colonies after incubation” value in experiment [6] was “None”. Moreover, the “Effect on B. subtilis growth” value in experiment [7] is “cidal (cidal (ratio = 0, bacterial growth not revived))”.
`O=C(Nc1cccc(-c2cscn2)c1)C1CCN(C/C=C/c2ccc(F)cc2)CC1` [Compound 6]: the MBC in experiment [1] came to 50 µM (≈ 21.1 µg/mL). Also, the “Resistant colonies after growth” value in [2] is recorded as “None”. Also, the MIC in [5] came out at 50 µM (≈ 21.1 µg/mL). Moreover, the “Resistant colonies after incubation” value in [6] is given as “None”.
In the case of `CN(Cc1nc2ccccc2[nH]1)Cc1c[nH]nc1-c1ccc(-c2ccccc2)cc1` [Compound 2], the MBC in experiment [1] is 50 µM (≈ 19.7 µg/mL). In addition, in [2], the “Resistant colonies after growth” value is “None”. Also, the MIC in experiment [5] stood at 25 µM (≈ 9.84 µg/mL). Moreover, the “Resistant colonies after incubation” value in experiment [6] is on record as “None”.
